From patent US8183230B2, “Antimicrobial preservatives to achieve multi-dose formulation using beta-cyclodextrins for liquid dosage forms” (priority 2004, dated 2012)

Assays:
[1] = Calculated non-sequestered concentrations in formulations
Excerpt: These constants were used to calculate the concentration of non-sequestered meta-cresol in the formulations tested for anti-microbial efficacy.
The appearance of a plateau at the higher concentrations is only due to the limitation in the bactericidal efficacy measurement method. As the method consists in evaluating the population not killed by the preservative, when the whole population is dead (i.e. none is detectable any more ˜100%) the figure quoted is of the form: a log reduction greater than a value usually between 3 and 5.
The formulations were analyzed for preservative effectiveness.

[2] = Equilibrium dialysis method for determining binding constants; conditions: for Keq / k: binary, SBE-CD 1.0 mM
Excerpt: In the present invention, the method to determine binding constants utilizes equilibrium dialysis in the development of a multi-use parenteral formulation containing SBE-CD and a preservative. In particular, the method was applied in developing a parenteral formulation comprising the compound of Formula Ia, a cyclodextrin (SBE-CD) and a preservative (meta-cresol). This approach is applicable to compounds other than the compound of Formula Ia in developing parenteral formulations and is within the scope of this invention. […] The significance of this procedure is its ability to measure the binding constant of multiple compounds competing for binding with the cyclodextrin. The experimental dialysis data also provides an easily interpreted representation of binding in the formulation by visualizing the degree of interaction by the equilibrium established following dialysis.
Equilibrium dialysis permits calculation of binding constants by modeling the resultant diffusion rate across a semi-permeable membrane with an equilibrium end point. Equilibrium dialysis is performed by allowing the substrate in a solution containing bound substrate and ligand in a donor compartment of an equilibrium dialysis apparatus (cell) to equilibrate over time with an acceptor compartment. Ono, N., Hirayama, F., Arima, H., Uekama, K. “Determination of Stability Constant of β-Cyclodextrin Complexes Using the Membrane Permeation Technique and the Permeation Behavior of Drug Competing Agent-β-Cyclodextrin Ternary Systems” Eur. J. Pharm. Sci. 1999 9:133-139. The acceptor cell contains no ligand. The membrane is semi-permeable allowing the typically low molecular weight substrates to freely diffuse, while the cyclodextrin (MW=2163) remains in the donor compartment. Sampling from both compartments over time yields a time-concentration profile of substrate in both the donor and acceptor compartments of the dialysis cell.
A mathematical model describing the diffusion rate of drug across the membrane can be derived for systems containing two or more components in solution. The dialysis rate and binding constant for the substrates are obtained by resolving the equation using nonlinear curve fitting software. Depending on the interactions between the components it is possible to describe the competitive binding that occurs in the solution. The equilibrium binding constant is a measure of the relative concentration of meta-cresol bound to SBE-CD according to the chemical equilibrium equation below: S=meta-cresol, L=SBE-CD. S:L indicates the complex formed between meta-cresol and SBE-CD.
The initial experiments established the equilibrium dialysis flux rates for compound of Formula Ia and meta-cresol across the 500 MWCO dialysis membrane. Three different concentrations of compound of Formula Ia were initially loaded into the donor side of the dialysis well. Samples were withdrawn at various time intervals and concentration of free component was measured using HPLC. […] The smoothed line was a fit to the data using the model for a unitary system presented in the discussion. The equilibrium point for all these control experiments was reached after 50% of the total drug was distributed uniformly across the donor and acceptor sides of the well. This asymptotic approach to equilibrium was modeled and the dialysis rates were calculated, Table II.
The primary method of analyzing the data was to perform calculations from equilibrium dialysis data, as described below. In particular, the rate of diffusion across the membrane was calculated using the following equations:
The rate of diffusion from the donor phase is defined by the following relationship: [D]t−[D]eq=([D]0−[D]eq)e^(−2kt) (1)
Rate of diffusion into the Acceptor Phase: [D]eq−[D]t=[D]eqe^(−2kt) (2) wherein
The basis of calculation in the presence of SBE-CD is to assume that complexation occurs only in the donor phase according to the standard complexation reaction:
The value for CyDF may be substituted into equation 8. […]

[3] = Stability measurements (accelerated stability)
Experimental: Stability Measurements. Potential lead formulations were evaluated under various accelerated stability conditions in order to assess potency and purity of compound of Formula Ia, preservative content and SBE-CD content. For example, in one accelerated stability study, potential lead formulations were placed in stability ovens to measure short-term thermal stability. […] Purity and potency assays to measure compound of Formula Ia, as well as antimicrobial preservatives and SBE-CD content, were performed using validated HPLC methodology. SBE-CD was assayed using GTP 5984.

[4] = Solubility analysis (solubility method) for binding constant with SBE-CD; conditions: for K11 (equilibrium): meta-cresol saturated solubility in varying SBE-CD; for Slope / y-intercept: meta-cresol solubility vs. SBE-CD concentration
Experimental: Traditional solubility methods were performed initially to determine the solubility and binding constants of compound of Formula Ia and preservative with SBE-CD.
Binding was calculated for meta-cresol using solubility analysis. The experiment was performed at different concentrations of compound of Formula Ia to determine if there was any effect from the presence of drug in solution on the meta-cresol binding constant. Meta-cresol solubility was measured in excess (saturated) meta-cresol and the equilibrium binding constant was calculated using the following equation:
[formula] Where St is the total solubility of meta-cresol, s0 is the inherent solubility of meta-cresol, Lt is the total concentration of SBE-CD (ligand) and K11 is the equilibrium binding constant of meta-cresol assuming a 1 to 1 binding stoichiometry.

[5] = approximate ratio 1:1, Meta-cresol 1.1 mM
[6] = approximate ratio 1:2, Meta-cresol 0.6 mM
[7] = approximate ratio 1:4, Meta-cresol 0.3 mM
[8] = Compound of Formula Ia 00.00 mM
[9] = Compound of Formula Ia 10.67 mM
[10] = Compound of Formula Ia 21.34 mM
[11] = Compound of Formula Ia 42.67 mM

With `Cc1cccc(O)c1` [meta-cresol] the “minimum concentration of non sequestered preservative” value ([1]; for preservative effectiveness in drug/cyclodextrin/preservative formulations) was 2.1 mg/mL, the calculated non-sequestered concentration ([1]; preferred formulation: 10 mgA/mL compound, 63 mg/mL SBE-CD, 3.3 mg/mL meta-cresol, pH 4.4) was 2.8 mg/mL and the Keq [2, 5] was 88 M⁻¹. It also gave a k [2, 5] of 1.984 h⁻¹, a Keq [2, 6] of 75 M⁻¹ and a k [2, 6] of 2.182 h⁻¹. The Keq [2, 7] was 85 M⁻¹, the k [2, 7] was 2.761 h⁻¹ and the “binding constant with SBE-CD” value ([2]; equilibrium dialysis method, binary systems, drug ±352 M−1, n=3, preservative ±7 M−1) was 83 M⁻¹. The “binding of preservative to cyclodextrin in ternary systems” value ([2]; ternary systems of SBE-CD, drug and preservative at the ratios tested, equilibrium profile) was “not bound to cyclodextrin”, the “stability in the formulation (in words)” value [3] was “excellent stability” and the “CONTENT (% INTENT)” value ([3]; 5° C., 1 week, Amber-Treated, 3 mg/mL meta-cresol, 100 mg/mL SBE-CD, 10 mgA/mL compound of Formula Ia) was 102 % INTENT. The “CONTENT (% INTENT)” value ([3]; 5° C., 1 week, Amber-Untreated, 3 mg/mL meta-cresol, 100 mg/mL SBE-CD, 10 mgA/mL compound of Formula Ia) was 102 % INTENT, the “CONTENT (% INTENT)” value ([3]; 5° C., 3 weeks, Amber-Treated, 3 mg/mL meta-cresol, 100 mg/mL SBE-CD, 10 mgA/mL compound of Formula Ia) was 104 % INTENT and the “CONTENT (% INTENT)” value ([3]; 5° C., 3 weeks, Amber-Untreated, 3 mg/mL meta-cresol, 100 mg/mL SBE-CD, 10 mgA/mL compound of Formula Ia) was 103 % INTENT. For the same molecule, the “CONTENT (% INTENT)” value ([3]; 5° C., 6 weeks, Amber-Treated, 3 mg/mL meta-cresol, 100 mg/mL SBE-CD, 10 mgA/mL compound of Formula Ia) was 104 % INTENT, the “CONTENT (% INTENT)” value ([3]; 5° C., 6 weeks, Amber-Untreated, 3 mg/mL meta-cresol, 100 mg/mL SBE-CD, 10 mgA/mL compound of Formula Ia) was 102 % INTENT and the “CONTENT (% INTENT)” value ([3]; 5° C., 12 weeks, Amber-Treated, 3 mg/mL meta-cresol, 100 mg/mL SBE-CD, 10 mgA/mL compound of Formula Ia) was 98 % INTENT. For the same molecule, the “CONTENT (% INTENT)” value ([3]; 5° C., 12 weeks, Amber-Untreated, 3 mg/mL meta-cresol, 100 mg/mL SBE-CD, 10 mgA/mL compound of Formula Ia) was 98 % INTENT, the “CONTENT (% INTENT)” value ([3]; 50° C., 1 week, Amber-Treated, 3 mg/mL meta-cresol, 100 mg/mL SBE-CD, 10 mgA/mL compound of Formula Ia) was 99 % INTENT and the “CONTENT (% INTENT)” value ([3]; 50° C., 1 week, Amber-Untreated, 3 mg/mL meta-cresol, 100 mg/mL SBE-CD, 10 mgA/mL compound of Formula Ia) was 100 % INTENT. The “CONTENT (% INTENT)” value ([3]; 50° C., 3 weeks, Amber-Treated, 3 mg/mL meta-cresol, 100 mg/mL SBE-CD, 10 mgA/mL compound of Formula Ia) was 103 % INTENT, the “CONTENT (% INTENT)” value ([3]; 50° C., 3 weeks, Amber-Untreated, 3 mg/mL meta-cresol, 100 mg/mL SBE-CD, 10 mgA/mL compound of Formula Ia) was 101 % INTENT and the “CONTENT (% INTENT)” value ([3]; 50° C., 6 weeks, Amber-Treated, 3 mg/mL meta-cresol, 100 mg/mL SBE-CD, 10 mgA/mL compound of Formula Ia) was 104 % INTENT. For the same molecule, the “CONTENT (% INTENT)” value ([3]; 50° C., 6 weeks, Amber-Untreated, 3 mg/mL meta-cresol, 100 mg/mL SBE-CD, 10 mgA/mL compound of Formula Ia) was 102 % INTENT, the “CONTENT (% INTENT)” value ([3]; 50° C., 12 weeks, Amber-Treated, 3 mg/mL meta-cresol, 100 mg/mL SBE-CD, 10 mgA/mL compound of Formula Ia) was 100 % INTENT and the “CONTENT (% INTENT)” value ([3]; 70° C., 1 week, Amber-Treated, 3 mg/mL meta-cresol, 100 mg/mL SBE-CD, 10 mgA/mL compound of Formula Ia) was 100 % INTENT. The “CONTENT (% INTENT)” value ([3]; 70° C., 1 week, Amber-Untreated, 3 mg/mL meta-cresol, 100 mg/mL SBE-CD, 10 mgA/mL compound of Formula Ia) was 100 % INTENT, the “CONTENT (% INTENT)” value ([3]; 70° C., 2 weeks, Amber-Treated, 3 mg/mL meta-cresol, 100 mg/mL SBE-CD, 10 mgA/mL compound of Formula Ia) was 103 % INTENT and the “CONTENT (% INTENT)” value ([3]; 70° C., 2 weeks, Amber-Untreated, 3 mg/mL meta-cresol, 100 mg/mL SBE-CD, 10 mgA/mL compound of Formula Ia) was 103 % INTENT. The “CONTENT (% INTENT)” value ([3]; 70° C., 3 weeks, Amber-Treated, 3 mg/mL meta-cresol, 100 mg/mL SBE-CD, 10 mgA/mL compound of Formula Ia) was 100 % INTENT, the “CONTENT (% INTENT)” value ([3]; 70° C., 3 weeks, Amber-Untreated, 3 mg/mL meta-cresol, 100 mg/mL SBE-CD, 10 mgA/mL compound of Formula Ia) was 102 % INTENT and the “CONTENT (% INTENT)” value ([3]; 70° C., 6 weeks, Amber-Treated, 3 mg/mL meta-cresol, 100 mg/mL SBE-CD, 10 mgA/mL compound of Formula Ia) was 101 % INTENT. The “CONTENT (% INTENT)” value ([3]; 70° C., 6 weeks, Amber-Untreated, 3 mg/mL meta-cresol, 100 mg/mL SBE-CD, 10 mgA/mL compound of Formula Ia) was 101 % INTENT, the “CONTENT (% INTENT)” value ([3]; 70° C., 12 weeks, Amber-Treated, 3 mg/mL meta-cresol, 100 mg/mL SBE-CD, 10 mgA/mL compound of Formula Ia) was 100 % INTENT and the “CONTENT (% INTENT)” value ([3]; 70° C., 12 weeks, Amber-Untreated, 3 mg/mL meta-cresol, 100 mg/mL SBE-CD, 10 mgA/mL compound of Formula Ia) was 100 % INTENT. For the same molecule, the “CONTENT (% INTENT)” value ([3]; ICH Photostability, 1X ICH UV/FI, Amber-Treated, 3 mg/mL meta-cresol, 100 mg/mL SBE-CD, 10 mgA/mL compound of Formula Ia) was 102 % INTENT, the “CONTENT (% INTENT)” value ([3]; ICH Photostability, 1X ICH UV/FI, Amber-Untreated, 3 mg/mL meta-cresol, 100 mg/mL SBE-CD, 10 mgA/mL compound of Formula Ia) was 102 % INTENT and the “loss / potency decrease” value ([3]; after 12 weeks at 70° C., relative to 1 week at 5° C., 3 mg/mL meta-cresol, 100 mg/mL SBE-CD, 10 mgA/mL compound of Formula Ia) was 2%. The “ACCEPTABLE STABILITY” value ([3]; pH 4.4, 10% SBE-CD, 10 mgA/mL compound of Formula Ia) was “✓”, the “Average Binding Constant” value ([4]; average over Compound of Formula Ia 00.00 to 42.67 mM) was 27.59 M⁻¹ and the “K11 (equilibrium)” value [4, 8] was 24.53 M⁻¹. The “K11 (equilibrium)” value [4, 9] was 25.78 M⁻¹, the “K11 (equilibrium)” value [4, 10] was 35.46 M⁻¹ and the “K11 (equilibrium)” value [4, 11] was 24.59 M⁻¹. It also gave a Slope [4, 8] of 0.46, a y-intercept [4, 8] of 34.06 mM and a Slope [4, 9] of 0.46. For the same molecule, the y-intercept [4, 9] was 33.15 mM, the Slope [4, 10] was 0.53 and the y-intercept [4, 10] was 32.15 mM. For the same molecule, the Slope [4, 11] was 0.43, the y-intercept [4, 11] was 31.15 mM and the “equilibrium binding constant, averaged across the studies” value ([4]; solubility method, SBE-CD) was 27.6 M⁻¹. For the same molecule, the “binding constant with SBE-CD” value ([4]; solubility method, n=1) was 28 M⁻¹.
